Literature values, collected in patent US20210085711A1 (Japan Tobacco Inc., priority 2017, published 2021).

System: patients
Conditions: investigation up to the approval; cited from earlier work

sodium ferrous citrate
expression rate of nausea and vomiting: about 13%
